For 20 compounds, Kd results are on record in US20230115945A1, “AMINOPYRIMIDINE COMPOUNDS” (TYRA BIOSCIENCES, INC., priority 2019, published 2023).

For orientation: Kd means the concentration at which binding is half-saturated.

Common to all, as to settings: 11-point 3-fold dilution, qPCR readout
Background: Quantitative PCR measures a nucleic acid by following its amplification.

For one experiment, the target named is T1, FGFR1 (Homo sapiens, UniProt P11362).
T1 construct: made in house; host or cells: E. coli host derived from BL21, infected with T7 phage
As to the kind of experiment: Kinase binding assay (Kd), FGFR1. The method, then:
(§1) Kinase-tagged T7 phage strains were prepared in an E. coli host derived from the BL21 strain. E. coli were grown to log-phase and infected with T7 phage and incubated with shaking at 32° C. until lysis. The lysates were centrifuged and filtered to remove cell debris. Streptavidin-coated magnetic beads were treated with biotinylated small molecule ligands for 30 minutes at room temperature to generate affinity resins for kinase assays. The liganded beads were blocked with excess biotin and washed with blocking buffer SeaBlock (Pierce), 1% BSA, 0.05% Tween 20, 1 mM DTT to remove unbound ligand and to reduce non-specific binding. Binding reactions were assembled by combining kinases, liganded affinity beads, and test compounds in 1× binding buffer (20% SeaBlock, 0.17×PBS, 0.05% Tween 20, 6 mM DTT).
(§2) Test compounds were prepared as 111X stocks in 100% DMSO. Kds were determined using an 11-point 3-fold compound dilution series with three DMSO control points. All compounds for Kd measurements are distributed by acoustic transfer (non-contact dispensing) in 100% DMSO. The compounds were then diluted directly into the assays such that the final concentration of DMSO was 0.9%. All reactions performed in polypropylene 384-well plate. Each was a final volume of 0.02 ml. The assay plates were incubated at room temperature with shaking for 1 hour and the affinity beads were washed with wash buffer (lx PBS, 0.05% Tween 20). The beads were then re-suspended in elution buffer (lx PBS, 0.05% Tween 20, 0.5 μM non-biotinylated affinity ligand) and incubated at room temperature with shaking for 30 minutes. The kinase concentration in the eluates was measured by qPCR.
(§3) Binding constants were calculated with a standard dose-response curve using the Hill equation: […]
(§4) The Hill Slope was set to −1. Curves were fitted using a non-linear least square fit with the Levenberg-Marquardt algorithm.

The target in the next experiment is T2, FGFR3 (Homo sapiens, UniProt P22607).
T2 construct: made in house; host or cells: E. coli host derived from BL21, infected with T7 phage
Put plainly: Kinase binding assay (Kd), FGFR3. The method, then: as §1, §2, §3, §4

In a further experiment the target is T3, FGFR2 (Homo sapiens, UniProt P21802).
T3 construct: made in house; host or cells: E. coli host derived from BL21, infected with T7 phage
As to the kind of experiment: Kinase binding assay (Kd), FGFR2. Here is the method: as §1, §2, §3, §4

The next experiment deals with T4, FGFR3 (V555M) (Homo sapiens, UniProt P22607, V555M).
T4 construct: made in house; host or cells: E. coli host derived from BL21, infected with T7 phage
As to the kind of experiment: Kinase binding assay (Kd), FGFR3 (V555M). Here is the method: as §1, §2, §3, §4

The target of another experiment is T5, FGFR4 (Homo sapiens, UniProt P22455).
T5 construct: made in house; host or cells: E. coli host derived from BL21, infected with T7 phage
As to the kind of experiment: Kinase binding assay (Kd), FGFR4. Here is the method: as §1, §2, §3, §4

SMILES strings stand for the structures.

T1 sequence (P11362 22-822): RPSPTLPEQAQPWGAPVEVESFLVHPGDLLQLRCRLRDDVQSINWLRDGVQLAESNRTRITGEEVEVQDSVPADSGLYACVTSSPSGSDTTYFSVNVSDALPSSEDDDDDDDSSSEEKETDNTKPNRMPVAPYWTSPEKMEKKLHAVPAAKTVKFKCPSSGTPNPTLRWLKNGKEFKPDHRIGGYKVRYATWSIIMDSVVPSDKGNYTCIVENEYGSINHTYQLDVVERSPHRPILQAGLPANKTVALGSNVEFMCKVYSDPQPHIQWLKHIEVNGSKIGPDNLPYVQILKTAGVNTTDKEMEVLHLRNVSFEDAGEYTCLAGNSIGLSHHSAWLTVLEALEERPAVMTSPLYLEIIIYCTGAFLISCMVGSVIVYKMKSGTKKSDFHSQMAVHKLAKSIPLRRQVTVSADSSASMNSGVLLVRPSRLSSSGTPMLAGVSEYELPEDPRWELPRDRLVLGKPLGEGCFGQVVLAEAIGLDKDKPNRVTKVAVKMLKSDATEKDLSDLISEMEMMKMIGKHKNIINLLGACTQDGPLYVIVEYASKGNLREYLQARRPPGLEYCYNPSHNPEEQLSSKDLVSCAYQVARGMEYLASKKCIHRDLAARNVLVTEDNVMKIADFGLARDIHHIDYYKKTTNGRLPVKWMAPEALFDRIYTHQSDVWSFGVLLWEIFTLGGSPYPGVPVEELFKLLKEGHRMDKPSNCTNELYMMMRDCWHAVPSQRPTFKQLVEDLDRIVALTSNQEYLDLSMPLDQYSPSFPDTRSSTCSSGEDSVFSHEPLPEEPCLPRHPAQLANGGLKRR
T3 sequence (P21802 22-821): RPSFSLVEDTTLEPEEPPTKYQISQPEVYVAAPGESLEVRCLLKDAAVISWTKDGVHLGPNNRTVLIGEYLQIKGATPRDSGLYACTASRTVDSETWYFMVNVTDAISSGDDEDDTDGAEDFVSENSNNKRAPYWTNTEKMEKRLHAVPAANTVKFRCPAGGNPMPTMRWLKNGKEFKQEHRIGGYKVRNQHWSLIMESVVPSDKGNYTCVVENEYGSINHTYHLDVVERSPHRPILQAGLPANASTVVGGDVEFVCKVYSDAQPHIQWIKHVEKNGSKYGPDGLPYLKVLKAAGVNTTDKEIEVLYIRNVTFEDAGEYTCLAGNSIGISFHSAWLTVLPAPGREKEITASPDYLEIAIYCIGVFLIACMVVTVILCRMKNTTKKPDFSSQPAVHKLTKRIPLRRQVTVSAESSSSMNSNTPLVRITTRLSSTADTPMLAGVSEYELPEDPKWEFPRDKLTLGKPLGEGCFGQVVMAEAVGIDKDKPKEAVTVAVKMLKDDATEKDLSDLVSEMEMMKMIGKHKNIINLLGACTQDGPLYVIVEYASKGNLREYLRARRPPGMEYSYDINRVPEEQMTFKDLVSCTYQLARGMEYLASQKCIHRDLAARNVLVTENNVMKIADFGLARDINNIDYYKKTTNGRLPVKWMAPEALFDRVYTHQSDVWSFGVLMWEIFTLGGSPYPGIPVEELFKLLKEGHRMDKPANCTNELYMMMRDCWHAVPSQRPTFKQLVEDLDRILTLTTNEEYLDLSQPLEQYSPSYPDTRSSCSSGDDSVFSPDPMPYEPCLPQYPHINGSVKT
T4 sequence (P22607 23-806 V555M): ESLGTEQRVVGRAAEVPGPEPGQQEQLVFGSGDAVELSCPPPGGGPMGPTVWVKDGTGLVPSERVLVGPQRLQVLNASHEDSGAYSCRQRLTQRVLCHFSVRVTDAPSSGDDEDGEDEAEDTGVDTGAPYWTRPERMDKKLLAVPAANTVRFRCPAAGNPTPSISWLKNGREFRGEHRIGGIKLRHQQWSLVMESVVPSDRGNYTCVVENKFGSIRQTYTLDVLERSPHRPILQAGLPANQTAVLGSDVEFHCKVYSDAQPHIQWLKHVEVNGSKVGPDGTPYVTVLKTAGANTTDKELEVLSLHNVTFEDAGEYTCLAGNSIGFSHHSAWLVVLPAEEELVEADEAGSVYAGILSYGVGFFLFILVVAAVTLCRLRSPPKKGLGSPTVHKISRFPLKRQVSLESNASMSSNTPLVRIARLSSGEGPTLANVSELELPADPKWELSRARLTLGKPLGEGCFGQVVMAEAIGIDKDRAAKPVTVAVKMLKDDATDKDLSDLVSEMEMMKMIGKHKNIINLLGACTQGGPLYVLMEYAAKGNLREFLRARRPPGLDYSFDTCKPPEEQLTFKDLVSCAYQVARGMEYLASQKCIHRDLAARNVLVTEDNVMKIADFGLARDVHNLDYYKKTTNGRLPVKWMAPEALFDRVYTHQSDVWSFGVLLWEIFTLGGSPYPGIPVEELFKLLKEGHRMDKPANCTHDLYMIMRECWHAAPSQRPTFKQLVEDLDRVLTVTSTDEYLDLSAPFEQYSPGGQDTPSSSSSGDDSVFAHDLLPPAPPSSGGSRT
T5 sequence (P22455 22-802): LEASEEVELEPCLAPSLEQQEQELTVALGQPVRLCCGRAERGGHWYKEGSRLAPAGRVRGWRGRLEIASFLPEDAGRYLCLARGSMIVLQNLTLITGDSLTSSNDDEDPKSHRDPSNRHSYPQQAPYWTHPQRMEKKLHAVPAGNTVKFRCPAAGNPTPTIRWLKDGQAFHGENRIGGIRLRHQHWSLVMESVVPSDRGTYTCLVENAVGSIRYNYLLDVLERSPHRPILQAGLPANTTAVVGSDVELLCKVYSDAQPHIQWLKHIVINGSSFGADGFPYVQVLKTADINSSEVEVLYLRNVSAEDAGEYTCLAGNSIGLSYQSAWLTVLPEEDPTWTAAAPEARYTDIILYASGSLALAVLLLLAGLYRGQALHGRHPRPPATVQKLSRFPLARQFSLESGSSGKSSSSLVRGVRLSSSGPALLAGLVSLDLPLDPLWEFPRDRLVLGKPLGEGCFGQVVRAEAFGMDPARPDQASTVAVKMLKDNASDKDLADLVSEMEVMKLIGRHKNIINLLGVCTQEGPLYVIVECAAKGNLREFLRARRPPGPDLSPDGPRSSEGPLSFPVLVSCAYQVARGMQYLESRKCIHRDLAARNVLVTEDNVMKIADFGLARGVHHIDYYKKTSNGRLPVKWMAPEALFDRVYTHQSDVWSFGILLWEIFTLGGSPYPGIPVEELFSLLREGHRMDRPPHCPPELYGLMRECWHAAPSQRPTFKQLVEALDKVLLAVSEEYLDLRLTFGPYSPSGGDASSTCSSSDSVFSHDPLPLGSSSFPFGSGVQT
T2 sequence (P22607 23-806): as the sequence (P22607 23-806 V555M) above, with M533V counted along it

`COc1cc(N=S2(=O)CCN(C(C)C)CC2)ccc1Nc1ncc(Cl)c(-c2c[nH]c3ccccc23)n1` [Example 40, 5-Chloro-4-(1H-indol-3-yl)-N-[4-[(4-isopropyl-1-oxo-1,4-thiazinan-1-ylidene)amino]-2-methoxy-phenyl]pyrimidin-2-amine]: the Kd was determined as 80 nM at FGFR1; 110 nM at FGFR3; 860 nM at FGFR2; 10 nM at FGFR3 (V555M); 0.1 µM at FGFR4.
For `COc1cc(S(C)(=N)=O)ccc1Nc1ncc(Cl)c(-n2ccc3ccccc32)n1` (stereo not shown) [Example 41, 5-chloro-4-indol-1-yl-N-[2-methoxy-4-(methyl-sulfonimidoyl)phenyl]pyrimidin-2-amine], the Kd on FGFR1 stood at 9000 nM; on FGFR3 it was 6000 nM; at FGFR2, 18000 nM; at FGFR3 (V555M), 180 nM; at FGFR4, 6.3 µM.
On to `COc1cc(S(C)(=N)=O)ccc1Nc1ncc(C)c(-n2ccc3ccccc32)n1` (stereo not shown) [Example 42, 4-Indol-1-yl-N-[2-methoxy-4-(methylsulfonimidoyl)phenyl]-5-methyl-pyrimidin-2-amine], for which the Kd turned out to be 3000 nM at FGFR1; 1800 nM at FGFR3; 3300 nM at FGFR2; 110 nM on FGFR3 (V555M); 4.2 µM at FGFR4.
As for `COc1cc(S(C)(=N)=O)ccc1Nc1nccc(-n2ccc3ccccc32)n1` (stereo not shown) [Example 43, 4-Indol-1-yl-N-[2-methoxy-4-(methylsulfonimidoyl)phenyl]-pyrimidin-2-amine], the dissociation constant (Kd) on FGFR1 came out at 5000 nM; on FGFR3 it was 3400 nM; at FGFR2 it was 4000 nM; on FGFR3 (V555M), 680 nM; on FGFR4, 7.5 µM.
With `COc1cc(N2CCS(=N)(=O)CC2)ccc1Nc1ncc(Cl)c(-n2ccc3ccccc32)n1` [Example 44, 5-Chloro-N-[4-(1-imino-1-oxo-1,4-thiazinan-4-yl)-2-methoxy-phenyl]-4-indol-1-yl-pyrimidin-2-amine], the Kd stood at 2200 nM at FGFR1; 2800 nM at FGFR3; 15000 nM at FGFR2; 42 nM at FGFR3 (V555M); 4.1 µM on FGFR4.
In the case of `COc1cc(N2CCS(=N)(=O)CC2)ccc1Nc1nccc(-n2ccc3ccccc32)n1` [Example 45, N-[4-(1-Imino-1-oxo-1,4-thiazinan-4-yl)-2-methoxy-phenyl]-4-indol-1-yl-pyrimidin-2-amine], the equilibrium dissociation constant (Kd) was determined as 7800 nM at FGFR1; 4900 nM at FGFR3; 9000 nM at FGFR2; 1100 nM on FGFR3 (V555M); 5.1 µM at FGFR4.
For `COc1cc(N2CCS(=N)(=O)CC2)ccc1Nc1ncc(C)c(-n2ccc3ccccc32)n1` [Example 46, N-[4-(1-imino-1-oxo-1,4-thiazinan-4-yl)-2-methoxy-phenyl]-4-indol-1-yl-5-methyl-pyrimidin-2-amine] the same measures were 2700 nM, 2200 nM, 4400 nM, 160 nM and 5.6 µM.
Turning to `N=S(=O)(c1ccc(Nc2ncc(Cl)c(-c3c[nH]c4ccccc34)n2)cc1)C1CC1` (stereo not shown) [Example 47, 5-Chloro-N-[4-(cyclopropyl-sulfonimidoyl)phenyl]-4-(1H-indol-3-yl)pyrimidin-2-amine], the dissociation constant (Kd) is 18 nM at FGFR1; 37 nM at FGFR3; 16 nM at FGFR2; 4 nM on FGFR3 (V555M); 0.19 µM at FGFR4.
Consider `Cc1cnc(Nc2ccc(S(C)(=N)=O)cc2)nc1-c1c[nH]c2ccccc12` (stereo not shown) [Example 48, 4-(1H-Indol-3-yl)-5-methyl-N-[4-(methylsulfonimidoyl)-phenyl]pyrimidin-2-amine], for which the Kd amounted to 7 nM at FGFR1; 16 nM at FGFR3; 6 nM on FGFR2; 2 nM at FGFR3 (V555M); 0.16 µM at FGFR4.
For the compound `Cn1cc(-c2nc(Nc3ccc(S(=N)(=O)C4CC4)cc3)ncc2Cl)c2ccccc21` (stereo not shown) [Example 50, 5-Chloro-N-[4-(cyclopropyl-sulfonimidoyl)phenyl]-4-(1-methylindol-3-yl)pyrimidin-2-amine], the Kd at FGFR1 amounted to 330 nM; on FGFR3 it was 190 nM; on FGFR2, 170 nM; at FGFR3 (V555M), 26 nM; at FGFR4, 3 µM.
`N=S1(=O)CCN(c2ccc(Nc3ncc(F)c(-c4c[nH]c5ccccc45)n3)cc2)CC1` [Example 58, 5-Fluoro-N-[4-(1-imino-1-oxo-1,4-thiazinan-4-yl)phenyl]-4-(1H-indol-3-yl)pyrimidin-2-amine]: the equilibrium dissociation constant (Kd) at FGFR1 came out at 11 nM; at FGFR3, 15 nM; on FGFR2, 19 nM; on FGFR3 (V555M) it was 7 nM; on FGFR4, 0.12 µM.
With `CS(C)(=O)=Nc1ccc(Nc2ncc(F)c(-c3c[nH]c4ccccc34)n2)cc1` [Example 59, N-[4-[[Dimethyl(oxo)-λ^6-sulfanylidene]amino]phenyl]-5-fluoro-4-(1H-indol-3-yl)pyrimidin-2-amine], the Kd on FGFR1 came out at 18 nM; at FGFR3 it was 22 nM; at FGFR2, 50 nM; on FGFR3 (V555M), 11 nM; at FGFR4 it was 0.13 µM.
For `C=CC(=O)Nc1ccc2c(c1)c(C)cn2-c1nc(Nc2ccc(N=S(C)(C)=O)cc2OCC)ncc1Cl` [Example 65, N-[1-[5-Chloro-2-[4-[[dimethyl(oxo)-λ^6-sulfanylidene]amino]-2-ethoxy-anilino]pyrimidin-4-yl]-3-methyl-indol-5-yl]prop-2-enamide], the dissociation constant Kd at FGFR1 was 4000 nM; at FGFR3, 1700 nM; on FGFR2, 7900 nM; on FGFR3 (V555M), 970 nM; at FGFR4, 1.3 µM.
On to `CCC(=O)Nc1ccc2c(ccn2-c2nc(Nc3ccc(N=S(C)(C)=O)cc3)ncc2Cl)c1` [Example 68, N-[1-[5-Chloro-2-[4-[[dimethyl(oxo)-λ^6-sulfanylidene]amino]anilino]-pyrimidin-4-yl]indol-5-yl]propanamide], for which the Kd on FGFR1 was 630 nM; on FGFR3 it was 320 nM; at FGFR2, 340 nM; on FGFR3 (V555M), 24 nM; on FGFR4, 2.4 µM.
Taken in the same sequence, the figures for `C=CC(=O)Nc1ccc2c(ccn2-c2nc(Nc3ccc(S(C)(=N)=O)cc3OC)ncc2Cl)c1` (stereo not shown) [Example 71, N-[1-[5-chloro-2-[2-methoxy-4-(methylsulfonimidoyl)-anilino]pyrimidin-4-yl]indol-5-yl]prop-2-enamide] were 6000 nM, 1500 nM, 3000 nM, 140 nM and 3.4 µM.
Taken in the same sequence, the figures for `C=CC(=O)Nc1ccc2c(ccn2-c2nc(Nc3ccc(N4CCS(=N)(=O)CC4)cc3)ncc2Cl)c1` [Example 72] were 77 nM, 17 nM, 100 nM, 5.7 nM and 0.24 µM.
For the compound `CCC(=O)Nc1ccc2c(ccn2-c2nc(Nc3ccc(N4CCS(=N)(=O)CC4)cc3)ncc2Cl)c1` [Example 73, N-[1-[5-chloro-2-[4-(1-imino-1-oxo-1,4-thiazinan-4-yl)anilino]pyrimidin-4-yl]indol-5-yl]propanamide], the Kd on FGFR1 came out at 290 nM; on FGFR3, 180 nM; at FGFR2, 380 nM; on FGFR3 (V555M), 18 nM; on FGFR4, 1.3 µM.
In the case of `C=CC(=O)Nc1ccc2c(ccn2-c2nc(Nc3ccc(S(C)(=N)=O)cc3OC)ncc2C)c1` (stereo not shown) [Example 75, N-[1-[2-[2-methoxy-4-(methylsulfonimidoyl)anilino]-5-methyl-pyrimidin-4-yl]indol-5-yl]prop-2-enamide], the Kd stood at 5000 nM at FGFR1; 1100 nM at FGFR3; 1600 nM at FGFR2; 380 nM on FGFR3 (V555M); 0.5 µM at FGFR4.
For `C=CC(=O)Nc1cccc2c1ccn2-c1nc(Nc2ccc(N=S(C)(C)=O)cc2)ncc1Cl` [Example 76, N-[1-[5-Chloro-2-[4-[[dimethyl(oxo)-λ^6-sulfanylidene]amino]anilino]-pyrimidin-4-yl]indol-4-yl]prop-2-enamide], the Kd turned out to be 160 nM at FGFR1; 160 nM on FGFR3; 370 nM on FGFR2; 12 nM on FGFR3 (V555M); 3 µM on FGFR4.
With `CCC(=O)Nc1cccc2c1ccn2-c1nc(Nc2ccc(N=S(C)(C)=O)cc2)ncc1Cl` [Example 77, N-[1-[5-Chloro-2-[4-[[dimethyl(oxo)-λ^6-sulfanylidene]amino]anilino]-pyrimidin-4-yl]indol-4-yl]propanamide], the Kd on FGFR1 is 170 nM; at FGFR3 it was 130 nM; on FGFR2, 260 nM; on FGFR3 (V555M), 7 nM; on FGFR4, 2.6 µM.
